Consider 14 molecules from PMC12382740, “In Vitro and In Vivo Characterization of Novel Cathelicidin-Based Peptides with Antimicrobial Activity Against Pseudomonas aeruginosa” (Antibiotics, 2025).

Common to all, as to type: cell-based, Pseudomonas aeruginosa
The test system of test [1] is Colistin Susceptible P. aeruginosa. The method, then:
(§1) The antimicrobial activity of the peptides was tested against a collection of P. aeruginosa, selected by their resistance or susceptibility to colistin and/or classified as MDR strains. The origin of the strains was either clinical, relevant to the current clinical situation, or commercial strains belonging to the American Type Culture Collection (ATCC, Manassas, VA, USA), which complemented the collection for comparison and control. For the initial activity screening of the 17 peptides, we tested them against P. aeruginosa ATCC strains 1211007 and 1211101. Both strains are multidrug-resistant; however, the key difference is that strain 1211007 is susceptible to colistin, whereas strain 1211101 is resistant to colistin.
(§2) Minimum Inhibitory Concentration (MIC) of the antimicrobial agents against bacterial strains was obtained through broth microdilution assays following a protocol based on the Clinical & Laboratory Standards Institute’s guidelines. Modifications regarding microplate material and broth were included when testing the peptides’ activity and are detailed below. Colistin MICs were obtained following recommendations of the joint CLSI-EUCAST Polymyxin Breakpoints Working Group using Cation Adjusted Mueller-Hinton Broth (90922, 500 g Sigma-Aldrich®, St. Louis, MO, USA), and strains Escherichia coli 13846 (mcr-1 positive) and P. aeruginosa ATCC 27853 were used as quality controls in all assays. Bacteria were cultured in Columbia Agar plates (Columbia Agar with 5% Sheep Blood 90 mm Stacker plates, Becton Dickinson, Franklin Lakes, NJ, USA) and incubated overnight at 37 °C. Polypropylene round-bottomed 96-well plates (-96-well Polypropylene Storage Microplates, 267334, Thermo Fischer Scientific, Waltham, MA, USA) were used to prevent peptide binding to plate walls. AST broth (BD Phoenix™ AST broth, 8 mL, 246003, Becton Dickinson, Franklin Lakes, NJ, USA) was used when testing the peptides’ activity. […] Three biological and technical replicates were performed per strain.

Test [2] deals with Colistin-Resistant P. aeruginosa. The method, then: as §1, §2
The test system of test [3] is P. aeruginosa strain panel. The settings on record: for MIC50 / MIC90: panel of 15 P. aeruginosa strains. The procedure: as §1, §2
Where [4] appears, read: colistin-susceptible P. aeruginosa, value in brackets.
Setting [5] is: colistin-resistant P. aeruginosa, value in brackets.
The mark [6] stands for this setting: colistin-susceptible P. aeruginosa.
Where [7] appears, read: colistin-resistant P. aeruginosa.

Read-outs that look alike come from different tables or passages of the source. Bridge positions count the residues as written; N and C are the ends. Ends that are not written are not given here. Peptide text beside a SMILES is read from it.

In the case of “RRRPRPPYLPRPRPPPFFPPRLPPRIPPGFPPRFPPRFP-NH2 (C-terminus assumed) [PR39]”, the MIC in test [1] (setting [4]) was 14 µM; in test [2] (setting [5]) it was 7 µM.
Regarding “ISRLAGLLRKGGEKIGEKLKKIGQKIKNFFQKLVPQPEQ [CRAMP 1-39]”, the MIC in test [2] (Colistin-Resistant) is 32 µg/mL; in test [2] (setting [5]), 7 µM.
On to “GLVRKGGEKFGEKLRKIGQKIKEFFQKLALEIEQ [r-CRAMP]”, for which the MIC in test [1] (Colistin Susceptible) was above 256 µg/mL; in test [1] (setting [4]), above 65 µM; in test [2] (Colistin-Resistant), 64 µg/mL; in test [2] (setting [5]) it was 16 µM.
The matching figures for “GIINTLQKYYCRVRGGRCAVLSCLPKEEQIGKCSTRGRKCCRRKK (disulfide 11-40, 18-33, 23-41) [β-defensin 3]”: above 50 µg/mL, above 10 µM, above 50 µg/mL and above 10 µM.
In the case of `CC[C@H](C)[C@@H]1NC(=O)[C@H](CCC(=O)O)NC(=O)[C@@H]2CSSC[C@@H]3NC(=O)[C@H](Cc4ccc(O)cc4)NC(=O)[C@@H](NC(=O)[C@@H](NC(=O)[C@H](C)N)[C@@H](C)O)CSSC[C@@H](C(=O)N[C@@H](CCCNC(=N)N)C(=O)O)NC(=O)[C@H](CSSC[C@H](NC(=O)[C@H](CCCNC(=N)N)NC(=O)CNC(=O)[C@H]([C@@H](C)O)NC(=O)[C@H](CCCNC(=N)N)NC3=O)C(=O)N[C@@H](C)C(=O)N[C@@H]([C@@H](C)O)C(=O)N[C@@H](CCCNC(=N)N)C(=O)N[C@@H](CCC(=O)O)C(=O)N[C@@H](CO)C(=O)N[C@@H](CC(C)C)C(=O)N[C@@H](CO)C(=O)NCC(=O)N[C@@H](C(C)C)C(=O)N2)NC(=O)[C@H](CC(C)C)NC(=O)[C@H](CCCNC(=N)N)NC(=O)[C@H](Cc2ccc(O)cc2)NC(=O)[C@H](CC(C)C)NC(=O)[C@H](CCCNC(=N)N)NC(=O)CNC(=O)[C@H](CO)NC1=O` [α-defensin 5] (H-ATCYCRTGRCATRESLSGVCEISGRLYRLCCR-OH; disulfide 3-31, 5-20, 10-30; N-terminus and C-terminus assumed), the MIC came out at 50 µg/mL in test [1] (setting [6]) and 14 µM in test [1] (setting [4]).
Take `CC[C@H](C)[C@@H]1NC(=O)CNC(=O)[C@H](CCSC)NC(=O)[C@H](C(C)C)NC(=O)[C@H]([C@@H](C)O)NC(=O)[C@@H]2CSSC[C@@H]3NC(=O)[C@H](Cc4c[nH]cn4)NC(=O)[C@@H](NC(=O)[C@@H](NC(=O)[C@H](Cc4ccccc4)NC(=O)[C@H](C)N)[C@@H](C)O)CSSC[C@@H](C(=O)N[C@@H](CC(C)C)C(=O)O)NC(=O)[C@H](CSSC[C@H](NC(=O)[C@H](CO)NC(=O)[C@H](CCCNC(=N)N)NC(=O)[C@H](CCCNC(=N)N)NC3=O)C(=O)N[C@@H](Cc3ccc(O)cc3)C(=O)N[C@@H](CO)C(=O)N[C@@H]([C@@H](C)O)C(=O)N[C@@H](CCC(=O)O)C(=O)N[C@@H](Cc3ccc(O)cc3)C(=O)N[C@@H](CO)C(=O)N[C@@H](Cc3ccc(O)cc3)C(=O)NCC(=O)N[C@@H]([C@@H](C)O)C(=O)N2)NC(=O)[C@H](Cc2ccccc2)NC(=O)[C@H](CCCNC(=N)N)NC(=O)[C@H](Cc2c[nH]cn2)NC(=O)[C@H](CC(N)=O)NC1=O` [α-defensin 6]: the MIC is above 50 µg/mL in test [1] (Colistin Susceptible), above 13 µM in test [1] (setting [4]), above 50 µg/mL in test [2] (Colistin-Resistant) and above 13 µM in test [2] (setting [5]).
For the molecule “SSLLEKGLDGAKKAVGGLGKLGKDAVEDLESVGKGAVHDVKDVLDSVL [Dermicidin]”, the MIC was above 256 µg/mL in test [1] (Colistin Susceptible), above 53 µM in test [1] (setting [4]), above 256 µg/mL in test [2] (Colistin-Resistant) and above 53 µM in test [2] (setting [5]).
“GLLRKGGEKIGEKLKKIGQKIKNFFQKLVPQPEQ [CRAMP]”: the MIC is 32 µg/mL in test [2] (Colistin-Resistant) and 8 µM in test [2] (setting [5]).
Turning to Colistin [reference compound], the MIC in test [1] (setting [6]) is 0.75 µg/mL; in test [1] (setting [4]), 0.7 µM; in test [2] (setting [7]), 32 µg/mL; in test [2] (setting [5]) it was 28 µM; in test [3] (strain 12-1110 S1), at most 0.125 µg/mL; in test [3] (strain 15-0307 S4) it was at most 0.125 µg/mL. Moreover, the MIC in test [3] (strain 15-0803 S3) was at most 0.125 µg/mL; in test [3] (strain 21-0308 R2), 64 µg/mL; in test [3] (strain 21-0410 S5) it was at most 0.125 µg/mL; in test [3] (strain 21-0505 S2) it was at most 0.125 µg/mL; in test [3] (strain 36a) it was 0.25 µg/mL; in test [3] (strain 38a) it was at most 0.125 µg/mL. For the same molecule, the MIC was at most 0.125 µg/mL in test [3] (strain 27853); 64 µg/mL in test [3] (strain 16359347-2 R3); 0.25 µg/mL in test [3] (strain C1); 0.5 µg/mL in test [3] (strain C2); at most 0.125 µg/mL in test [3] (strain C3); 0.25 µg/mL in test [3] (strain C4). The molecule further came in with an MIC in test [3] (strain C5) of at most 0.125 µg/mL. The MIC50 in test [3] was at most 0.125 µg/mL; in test [3] (value in brackets), at most 0.11 µM. In addition, the MIC90 in test [3] came to 64 µg/mL; in test [3] (value in brackets) it was 55 µM.
For `CC[C@H](C)[C@@H]1NC(=O)[C@@H]2CSSC[C@@H]3NC(=O)[C@H](Cc4ccccc4)NC(=O)[C@H](C)NC(=O)[C@H](Cc4c[nH]c5ccccc45)NC(=O)[C@H](CC(C)C)NC(=O)[C@H](CCCNC(=N)N)NC(=O)CNC(=O)[C@H](CCC(N)=O)NC(=O)[C@H](Cc4ccc(O)cc4)NC(=O)[C@H]([C@@H](C)CC)NC(=O)[C@H](CSSC[C@H](NC(=O)[C@H](Cc4ccc(O)cc4)NC(=O)[C@@H](N)CSSC[C@@H](C(=O)O)NC3=O)C(=O)N[C@@H](CCCNC(=N)N)C(=O)N[C@@H]([C@@H](C)CC)C(=O)N3CCC[C@H]3C(=O)N[C@@H](C)C(=O)N2)NC(=O)[C@H]([C@@H](C)O)NC(=O)CNC(=O)[C@H](Cc2ccc(O)cc2)NC(=O)[C@H](CCCNC(=N)N)NC(=O)[C@H](CCCNC(=N)N)NC(=O)[C@H](CCC(=O)O)NC(=O)CNC(=O)[C@H](C)NC1=O` [α-defensin 2] (H-CYCRIPACIAGERRYGTCIYQGRLWAFCC-OH; disulfide 1-29, 3-18, 8-28; N-terminus and C-terminus assumed), the MIC was above 50 µg/mL in test [1] (Colistin Susceptible), above 15 µM in test [1] (setting [4]), above 50 µg/mL in test [2] (Colistin-Resistant) and above 15 µM in test [2] (setting [5]).
In the case of `CC[C@H](C)[C@@H]1NC(=O)[C@@H](NC(=O)[C@@H](NC(=O)[C@@H]2CCCN2C(=O)[C@H](Cc2ccccc2)NC(=O)[C@H](Cc2c[nH]cn2)NC(=O)[C@@H](NC(=O)[C@@H](N)CC(=O)O)[C@@H](C)O)[C@@H](C)CC)CSSC[C@@H](C(=O)N[C@@H](CCCCN)C(=O)N[C@H](C(=O)O)[C@@H](C)O)NC(=O)[C@@H]2CSSC[C@@H]3NC(=O)[C@@H]4CSSC[C@H](NC(=O)[C@H](Cc5ccccc5)NC1=O)C(=O)N[C@@H](CSSC[C@H](NC(=O)[C@H](CCCCN)NC(=O)[C@H](CO)NC(=O)[C@H](CCCNC(=N)N)NC(=O)[C@H](Cc1c[nH]cn1)NC3=O)C(=O)NCC(=O)N[C@@H](CCSC)C(=O)N2)C(=O)NCC(=O)N4` [Hepcidin], the MIC was above 256 µg/mL in test [1] (setting [6]), above 92 µM in test [1] (setting [4]), above 256 µg/mL in test [2] (setting [7]) and above 92 µM in test [2] (setting [5]).
As to “GIGDPVTCLKSGAICHPVFCPRRYKQIGTCGLPGTKCCKKP (disulfide 8-37, 15-30, 20-38) [β-defensin 2]”, the MIC in test [1] (setting [6]) was above 50 µg/mL; in test [1] (setting [4]), above 12 µM; in test [2] (setting [7]) it was above 50 µg/mL; in test [2] (setting [5]), above 12 µM.
As for AKKVFKRLEKLFSKIQNDK [HP 2-20], the MIC in test [1] (setting [6]) is above 256 µg/mL; in test [1] (setting [4]), above 110 µM; in test [2] (setting [7]), above 256 µg/mL; in test [2] (setting [5]), above 110 µM.
Consider “KYYGNGVSCNKKGCSVDWGKAIGIIGNNSAANLATGGAAGWSK (disulfide 9-14) [Mundticin]”, for which the MIC was above 256 µg/mL in test [1] (Colistin Susceptible), above 60 µM in test [1] (setting [4]), above 256 µg/mL in test [2] (Colistin-Resistant) and above 60 µM in test [2] (setting [5]).
